# From PubChem BioAssay AID743107 (Vanderbilt Specialized Chemistry Center, 2013)
# Activity calls are given as the source filed them.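 Rule for the calls: active = compound leaving under 60% of the human M5 receptor calcium signal; inactive = the rest.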
# Target: Muscarinic acetylcholine receptor M5 (Homo sapiens) (UniProt P08912)
# Test: inhibitors of ACh-evoked M5 calcium signal – cell-based, single concentration, CHO-K1 hM5, ACh EC80 (AID 743107)
# Conditions: CHO-K1 hM5, calcium flux, at 10 µM, active compounds read low
# Sequence of Muscarinic acetylcholine receptor M5 (Homo sapiens) (P08912 whole entry, looked up): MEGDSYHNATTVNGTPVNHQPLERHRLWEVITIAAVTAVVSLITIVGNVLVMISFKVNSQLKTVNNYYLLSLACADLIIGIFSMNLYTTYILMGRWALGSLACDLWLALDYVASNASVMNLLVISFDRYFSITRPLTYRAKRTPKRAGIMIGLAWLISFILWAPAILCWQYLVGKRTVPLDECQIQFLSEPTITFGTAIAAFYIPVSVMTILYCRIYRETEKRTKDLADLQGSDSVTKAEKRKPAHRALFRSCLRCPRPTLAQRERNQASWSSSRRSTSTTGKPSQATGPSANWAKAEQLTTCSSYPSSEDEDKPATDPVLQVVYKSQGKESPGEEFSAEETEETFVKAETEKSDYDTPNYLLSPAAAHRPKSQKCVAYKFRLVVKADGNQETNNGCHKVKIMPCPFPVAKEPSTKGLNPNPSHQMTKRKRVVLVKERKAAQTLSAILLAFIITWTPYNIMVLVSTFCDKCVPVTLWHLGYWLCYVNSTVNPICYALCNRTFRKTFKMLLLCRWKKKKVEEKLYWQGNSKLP
row,activity remaining,Structure (SMILES)
1,52.9%,CC(=O)c1cccc(OCc2cc(C(=O)N(C)C(C)c3ccccc3)no2)c1 (stereo not given)
2,86.8% (inactive),CC(=O)c1cccc(OCc2cc(C(=O)N3CCc4cccnc4C3)no2)c1
3,71.7% (inactive),CC(c1ccccn1)N(C)C(=O)c1cc(COc2cccc(Br)c2)on1 (stereo not given)
4,69.3% (inactive),CC(O)c1cccc(OCc2cc(C(=O)N(C)C(C)c3ccccn3)no2)c1 (stereo not given)
5,76.1% (inactive),CC(Cl)c1cccc(OCc2cc(C(=O)N(C)C(C)c3ccccn3)no2)c1 (stereo not given)
6,60.6% (inactive),CC(=O)c1cccc(N(Cc2cc(C(=O)N(C)C(C)c3ccccn3)no2)S(=O)(=O)c2ccccc2[N+](=O)[O-])c1 (stereo not given)
7,67.3% (inactive),COC(=O)c1cccc(OCc2cc(C(=O)N(C)C(C)c3ccccn3)no2)c1 (stereo not given)
8,83.7% (inactive),CC(c1ccccn1)N(C)C(=O)c1cc(COc2ccccc2F)on1 (stereo not given)
9,78.2% (inactive),CC(c1ccccn1)N(C)C(=O)c1cc(CNC(=O)c2cccc(F)c2)on1 (stereo not given)
10,77.8% (inactive),CC(c1ccccn1)N(C)C(=O)c1cc(CNC(=O)C(C)(C)C)on1 (stereo not given)
11,77.1% (inactive),CC(=O)c1cccc(OCc2cc(C(=O)Nc3ccccn3)no2)c1
12,72.6% (inactive),CC(=O)c1cccc(OCc2cc(C(=O)NC(c3ccccn3)C(F)(F)F)no2)c1 (stereo not given)
13,73.9% (inactive),CC(=O)c1cccc(N(Cc2cc(C(=O)N(C)C(C)c3ccccn3)no2)C(=O)C(C)(C)C)c1 (stereo not given)
14,75.5% (inactive),CC(c1ccccn1)N(C)C(=O)c1cc(COc2cccc(CO)c2)on1 (stereo not given)
15,65.5% (inactive),CC(=O)c1cccc(N(Cc2cc(C(=O)N(C)C(C)c3ccccn3)no2)C(=O)c2cccc(C)c2)c1 (stereo not given)
16,76.8% (inactive),CC(=O)NCc1cc(C(=O)N(C)C(C)c2ccccn2)no1 (stereo not given)
17,76.4% (inactive),COc1ccccc1C(=O)NCc1cc(C(=O)N(C)C(C)c2ccccn2)no1 (stereo not given)
18,84.2% (inactive),CC(c1ccccn1)N(C)C(=O)c1cc(COc2ccc(Cl)cc2)on1 (stereo not given)
19,79% (inactive),CC(c1ccccn1)N(C)C(=O)c1cc(COc2ccc3c(c2)CCCC3)on1 (stereo not given)
20,69.6% (inactive),CC(=O)c1cccc(N(Cc2cc(C(=O)N(C)C(C)c3ccccn3)no2)C(=O)c2ccccc2)c1 (stereo not given)

row,activity remaining,Structure (SMILES)
1,88.7% (inactive),CC(=O)c1cccc(OCc2cc(C(=O)NCc3ccccn3)no2)c1
2,71.5% (inactive),Cc1cccc(C(=O)NCc2cc(C(=O)N(C)C(C)c3ccccn3)no2)c1 (stereo not given)
3,81.5% (inactive),CC(=O)c1cccc(OCc2cc(C(=O)N3CCc4ccccc4C3C)no2)c1 (stereo not given)
4,74.8% (inactive),CC(=O)c1cccc(N(Cc2cc(C(=O)N(C)C(C)c3ccccn3)no2)C(=O)c2ccccc2F)c1 (stereo not given)
5,75% (inactive),CC(=O)c1ccc(OCc2cc(C(=O)N(C)C(C)c3ccccn3)no2)cc1 (stereo not given)
6,79.8% (inactive),COc1cccc(OCc2cc(C(=O)N(C)C(C)c3ccccn3)no2)c1 (stereo not given)
7,74.2% (inactive),CC(=O)c1cccc(OCc2cc(C(=O)N(C)c3cccc4cccnc34)no2)c1
8,77% (inactive),CC(c1ccccn1)N(C)C(=O)c1cc(CNC(=O)c2ccc(F)cc2)on1 (stereo not given)
9,67.2% (inactive),CC(=O)c1cccc(N(Cc2cc(C(=O)N(C)C(C)c3ccccn3)no2)C(=O)c2ccccc2C)c1 (stereo not given)
10,73.8% (inactive),COc1ccccc1C(=O)N(Cc1cc(C(=O)N(C)C(C)c2ccccn2)no1)c1cccc(C(C)=O)c1 (stereo not given)
11,63.5% (inactive),CC(=O)c1cccc(N(Cc2cc(C(=O)N(C)C(C)c3ccccn3)no2)C(=O)c2ccc(C)cc2)c1 (stereo not given)
12,84.1% (inactive),CC(c1ccccn1)N(C)C(=O)c1cc(COc2cccc(C(F)(F)F)c2)on1 (stereo not given)
13,79.9% (inactive),Cc1ccccc1OCc1cc(C(=O)N(C)C(C)c2ccccn2)no1 (stereo not given)
14,83.1% (inactive),CC(c1ccccn1)N(C)C(=O)c1cc(COc2cccc(C=O)c2)on1 (stereo not given)
15,21.4%,CC(=O)c1cccc(NCc2cc(C(=O)N(C)C(C)c3ccccn3)no2)c1 (stereo not given)
16,70% (inactive),CC(=O)c1cccc(N(Cc2cc(C(=O)N(C)C(C)c3ccccn3)no2)C(=O)c2cccc(F)c2)c1 (stereo not given)
17,80.4% (inactive),CC(=O)c1ccccc1OCc1cc(C(=O)N(C)C(C)c2ccccn2)no1 (stereo not given)
18,77.1% (inactive),CC(c1ccccn1)N(C)C(=O)c1cc(COc2cccc(F)c2)on1 (stereo not given)
19,76.6% (inactive),CC(=O)c1cccc(OCc2cc(C(=O)N(C)Cc3ccccc3)no2)c1
20,77.2% (inactive),CC(c1ccccn1)N(C)C(=O)c1cc(COc2ccccc2Cl)on1 (stereo not given)

row,activity remaining,Structure (SMILES)
1,83.1% (inactive),CC(c1ccccn1)N(C)C(=O)c1cc(COc2cccc(Oc3ccccc3)c2)on1 (stereo not given)
2,79.2% (inactive),CCOc1cccc(OCc2cc(C(=O)N(C)C(C)c3ccccn3)no2)c1 (stereo not given)
3,77.8% (inactive),CC(=O)c1cccc(OCc2cc(C(=O)N(C)c3ccccn3)no2)c1
4,78.5% (inactive),Cc1ccc(OCc2cc(C(=O)N(C)C(C)c3ccccn3)no2)cc1 (stereo not given)
5,71.8% (inactive),CC(=O)c1cccc(N(Cc2cc(C(=O)N(C)C(C)c3ccccn3)no2)C(=O)c2ccc(F)cc2)c1 (stereo not given)
6,66% (inactive),CC(=O)c1cccc(N(Cc2cc(C(=O)N(C)C(C)c3ccccn3)no2)C(=O)C2CCCC2)c1 (stereo not given)
7,80.9% (inactive),CC(=O)c1cccc(OCc2cc(C(=O)N(C)C(C)c3ccncc3)no2)c1 (stereo not given)
8,78.2% (inactive),CC(=O)c1cccc(OCc2cc(C(=O)N(C)C(C)c3cccnc3)no2)c1 (stereo not given)
9,85.3% (inactive),CC(c1ccccn1)N(C)C(=O)c1cc(COc2ccc(F)c(F)c2)on1 (stereo not given)
10,70.4% (inactive),CC(=O)c1cccc(N(Cc2cc(C(=O)N(C)C(C)c3ccccn3)no2)C(C)=O)c1 (stereo not given)
11,73.7% (inactive),CC(c1ccccn1)N(C)C(=O)c1cc(COc2cccc([N+](=O)[O-])c2)on1 (stereo not given)
12,14.2%,CCN(C(=O)c1cc(COc2cccc(C(C)=O)c2)on1)C(C)c1ccccn1 (stereo not given)
13,71.8% (inactive),CC(c1ccccn1)N(C)C(=O)c1cc(CNC(=O)c2ccccc2F)on1 (stereo not given)
14,82.2% (inactive),CC(c1ccccn1)N(C)C(=O)c1cc(COc2ccc(F)cc2)on1 (stereo not given)
15,73.8% (inactive),Cc1ccccc1C(=O)NCc1cc(C(=O)N(C)C(C)c2ccccn2)no1 (stereo not given)
16,82.8% (inactive),COc1ccc(OCc2cc(C(=O)N(C)C(C)c3ccccn3)no2)cc1 (stereo not given)
17,75.1% (inactive),Cc1ccc(C(=O)NCc2cc(C(=O)N(C)C(C)c3ccccn3)no2)cc1 (stereo not given)
18,80.4% (inactive),CC(c1ccccn1)N(C)C(=O)c1cc(CNS(C)(=O)=O)on1 (stereo not given)
19,77.7% (inactive),CC(c1ccccn1)N(C)C(=O)c1cc(CNC(=O)C2CCCC2)on1 (stereo not given)
20,76.7% (inactive),CC(c1ccccn1)N(C)C(=O)c1cc(CNC(=O)c2ccccc2)on1 (stereo not given)
